Source: US20260250290A1 (BRISTOL-MYERS SQUIBB COMPANY, priority 2023, published 2026)
Counter-ions that a name gives are not always drawn.

Molecular target: T1, SGK1 (Homo sapiens, UniProt O00141)
T1 sequence (O00141 1-431): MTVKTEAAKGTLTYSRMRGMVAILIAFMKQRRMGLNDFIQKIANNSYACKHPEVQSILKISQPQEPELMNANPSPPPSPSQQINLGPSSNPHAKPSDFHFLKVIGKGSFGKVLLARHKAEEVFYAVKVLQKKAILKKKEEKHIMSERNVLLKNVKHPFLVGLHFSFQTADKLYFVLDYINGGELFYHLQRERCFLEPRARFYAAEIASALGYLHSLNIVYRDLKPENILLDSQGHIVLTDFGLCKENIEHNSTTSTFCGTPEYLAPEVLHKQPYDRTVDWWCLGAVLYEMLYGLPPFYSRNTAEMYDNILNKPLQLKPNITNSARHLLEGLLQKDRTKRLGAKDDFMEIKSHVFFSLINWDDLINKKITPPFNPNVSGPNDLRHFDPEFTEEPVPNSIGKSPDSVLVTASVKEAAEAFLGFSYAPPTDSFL
Test: SGK1 inhibition Assay B (Echo mass spectrometry of phosphorylated peptide product)
Format: biochemical
Details: 60 min at room temperature

| Molecule | IC50 [nM] |
| --- | --- |
| Cc1nccc(-c2cc(N3CCC[C@@H](NC(=O)c4sc(C)nc4OC4CCC(N5CCC5)CC4)C3)c3c(N)ncnn23)n1 (stereo partly drawn) [Example 1037, N—((R)-1-(4-amino-7-(2-methylpyrimidin-4-yl)pyrrolo[2,1-f][1,2,4]triazin-5-yl)piperidin-3-yl)-4-(((1S,4S)-4-(azetidin-1-yl)cyclohexyl)oxy)-2-methylthiazole-5-carboxamide] | 1.2 |
| Cc1nc(OCCCN(C)C)c(C(=O)N[C@@H]2CCCN(c3cc(-c4cnc(-n5cnnn5)c(F)c4)n4ncnc(N)c34)C2)s1 [Example 919, N-[(3R)-1-{4-amino-7-[5-fluoro-6-(1H-1,2,3,4-tetrazol-1-yl)pyridin-3-yl]pyrrolo[2,1-f][1,2,4]triazin-5-yl}piperidin-3-yl]-4-[3-(dimethylamino)propoxy]-2-methyl-1,3-thiazole-5-carboxamide] | 5 |
| COC(=O)N1CC=C(c2cc(N3CCC[C@@H](NC(=O)c4ccnc(N5CCN(C)CC5)n4)C3)c3c(N)ncnn23)C1 [Example 859, methyl (R)-3-(4-amino-5-(3-(2-(4-methylpiperazin-1-yl)pyrimidine-4-carboxamido)piperidin-1-yl)pyrrolo[2,1-f][1,2,4]triazin-7-yl)-2,5-dihydro-1H-pyrrole-1-carboxylate] | 5 |
| CC(C)N1CC2(CN(c3cccc(C(=O)N[C@@H]4CCCN(c5cc(-c6ccc7cnn(C)c7c6)n6ncnc(N)c56)C4)n3)C2)C1 [Example 821, (R)-N-(1-(4-amino-7-(1-methyl-1H-indazol-6-yl)pyrrolo[2,1-f][1,2,4]triazin-5-yl)piperidin-3-yl)-6-(6-isopropyl-2,6-diazaspiro[3.3]heptan-2-yl)picolinamide] | 69 |
| [2H]C([2H])([2H])N([C@H]1CC[C@@H](Oc2nc(C)sc2C(=O)N[C@@H]2CCCN(c3cc(C4=C(C)C(=O)OC4)n4ncnc(N)c34)C2)CC1)C([2H])([2H])[2H] [Example 1013, N—((R)-1-(4-amino-7-(4-methyl-5-oxo-2,5-dihydrofuran-3-yl)pyrrolo[2,1-f][1,2,4]triazin-5-yl)piperidin-3-yl)-4-(((1S,4S)-4-(bis(methyl-d3)amino)cyclohexyl)oxy)-2-methylthiazole-5-carboxamide] | 1.7 |
| Cc1nccc(-c2cc(N3CCC[C@@H](NC(=O)c4sc(C)nc4O[C@H]4CC[C@@H](NC(C)C)CC4)C3)c3c(N)ncnn23)n1 [Example 1036, N—((R)-1-(4-amino-7-(2-methylpyrimidin-4-yl)pyrrolo[2,1-f][1,2,4]triazin-5-yl)piperidin-3-yl)-4-(((1S,4S)-4 (isopropylamino)cyclohexyl)oxy)-2-methylthiazole-5-carboxamide] | 0.1 |
| CC(=O)N1CC=C(c2cc(N3CCC[C@@H](NC(=O)c4sc(Cl)cc4OC4CC5COCC(C4)N5)C3)c3c(N)ncnn23)C1 (stereo partly drawn) [Example 986E, 3-((3-Oxa-9-azabicyclo[3.3.1]nonan-7-yl)oxy)-N—((R)-1-(7-(1-acetyl-2,5-dihydro-1H-pyrrol-3-yl)-4-aminopyrrolo[2,1-f][1,2,4]triazin-5-yl)piperidin-3-yl)-5-chlorothiophene-2-carboxamide] | 0.9 |
| CN1CCN(c2nccc(C(=O)N[C@@H]3CCCN(c4cc(-c5ccc(-n6cnnn6)c(CO)c5)n5ncnc(N)c45)C3)n2)CC1 [Example 852, (R)-N-(1-(4-amino-7-(3-(hydroxymethyl)-4-(1H-tetrazol-1-yl)phenyl)pyrrolo[2,1-f][1,2,4]triazin-5-yl)piperidin-3-yl)-2-(4-methylpiperazin-1-yl)pyrimidine-4-carboxamide, TFA salt] | 10 |
| CN1CCN(c2nccc(C(=O)N[C@@H]3CCCN(c4cc(-c5cc(F)c(-n6cnnn6)c(F)c5)n5ncnc(N)c45)C3)n2)CC1 [Example 854] | 1 |
| Cc1nc(O[C@H]2CC[C@@H](NC(C)C)C2)c(C(=O)N[C@@H]2CCCN(c3cc(-c4ccc(C(N)=O)c(F)c4)n4ncnc(N)c34)C2)s1 [Example 940, N—((R)-1-(4-Amino-7-(4-carbamoyl-3-fluorophenyl)pyrrolo[2,1-f][1,2,4]triazin-5-yl)piperidin-3-yl)-4-(((1S,3R)-3-(isopropylamino)cyclopentyl)oxy)-2-methylthiazole-5-carboxamide] | 3 |
| CC(C)N1CC2(CN(c3cccc(C(=O)N[C@@H]4CCCN(c5cc(-c6cc(F)c(-n7cnnn7)cc6F)n6ncnc(N)c56)C4)n3)C2)C1 [Example 825, (R)-N-(1-(4-amino-7-(2,5-difluoro-4-(1H-tetrazol-1-yl)phenyl)pyrrolo[2,1-f][1,2,4]triazin-5-yl)piperidin-3-yl)-6-(6-isopropyl-2,6-diazaspiro[3.3]heptan-2-yl)picolinamide] | 7 |
| CCC(C)(C)NC1CCC(Oc2nc(C)sc2C(=O)N[C@@H]2CCCN(c3cc(C4=CC(=O)OC4)n4ncnc(N)c34)C2)CC1 (stereo partly drawn) [Example 1001, (R)—N-(1-(4-amino-7-(5-oxo-2,5-dihydrofuran-3-yl)pyrrolo[2,1-f][1,2,4]triazin-5-yl)piperidin-3-yl)-2-methyl-4-((4-(tert-pentylamino)cyclohexyl)oxy)thiazole-5-carboxamide] | 0.6 |
| COc1nc(-c2cc(N3CCC[C@@H](NC(=O)c4sc(C)nc4OC4CCC(N5CCC[C@H]5C)CC4)C3)c3c(N)ncnn23)ccc1C(N)=O (stereo partly drawn) [Example 1044, N—((R)-1-(4-amino-7-(5-carbamoyl-6-methoxypyridin-2-yl)pyrrolo[2,1-f][1,2,4]triazin-5-yl)piperidin-3-yl)-2-methyl-4-((4-((R)-2-methylpyrrolidin-1-yl)cyclohexyl)oxy)thiazole-5-carboxamide] | 2.8 |
| CCC(CC)N[C@H]1CC[C@@H](Oc2nc(C)sc2C(=O)N[C@@H]2CCCN(c3cc(C4=CC(=O)OC4)n4ncnc(N)c34)C2)CC1 [Example 1003, N—((R)-1-(4-amino-7-(5-oxo-2,5-dihydrofuran-3-yl)pyrrolo[2,1-f][1,2,4]triazin-5-yl)piperidin-3-yl)-2-methyl-4-(((1S,4S)-4-(pentan-3-ylamino)cyclohexyl)oxy)thiazole-5-carboxamide] | 0.8 |
| COC[C@@H](C)N[C@H]1CC[C@@H](Oc2nc(C)sc2C(=O)N[C@@H]2CCCN(c3cc(C4=C(C)C(=O)OC4)n4ncnc(N)c34)C2)CC1 [Example 1007, N-((R)-1-(4-amino-7-(4-methyl-5-oxo-2.5-dihydrofuran-3-yl)pyrrolo[2,1-f][1,2,4]triazin-5-y1)piperidin-3-y1)-4-((4-(((R)-1-methoxypropan-2-yl)amino)cyclohexyl)oxy)-2~methylthiazole-5-carboxamide] | 1 |
| CC(C)N1CC2(CN(c3cccc(C(=O)N[C@@H]4CCCN(c5cc(-c6ccc(-n7cnnn7)c(CO)c6)n6ncnc(N)c56)C4)n3)C2)C1 [Example 824, (R)-N-(1-(4-amino-7-(3-(hydroxymethyl)-4-(1H-tetrazol-1-yl)phenyl)pyrrolo[2,1-f][1,2,4]triazin-5-yl)piperidin-3-yl)-6-(6-isopropyl-2,6-diazaspiro[3.3]beptan-2-yl)picolinamide] | 10 |
| CCC(C)(C)NC1CCC(Oc2nc(C)sc2C(=O)N[C@@H]2CCCN(c3cc(C4=C(C)C(=O)OC4)n4ncnc(N)c34)C2)CC1 (stereo partly drawn) [Example 1005, (R)—N-(1-(4-amino-7-(4-methyl-5-oxo-2,5-dihydrofuran-3-yl)pyrrolo[2,1-f][1,2,4]triazin-5-yl)piperidin-3-yl)-2-methyl-4-((4-(tert-pentylamino)cyclohexyl)oxy)thiazole-5-carboxamide] | 0.5 |
| CC(=O)N1CC=C(c2cc(N3CCC[C@@H](NC(=O)c4sc(Cl)cc4O[C@@H]4C[C@H]5CC[C@@H](C4)O5)C3)c3c(N)ncnn23)C1 [Example 988, 3-(((IR,3s.5S)-8-oxabicyclo[3.2.1]octan-3-y1)oxy)-N-((R)-1-(7-(1-acetyl-2,5-dihydro-1H-pyrrol-3-y1)-4-aminopyrrolo[2,1-f][1,2,4]triazin-5-y1)piperidin-3-y1)-5-chlorothiophene-2-carboxamide] | 3 |
| Cc1nc(O[C@H]2CC[C@@H](NC3CCOC3)CC2)c(C(=O)N[C@@H]2CCCN(c3cc(-c4ccc(=O)n(CC(F)F)n4)n4ncnc(N)c34)C2)s1 (stereo partly drawn) [Example 980, N—((R)-1-(4-Amino-7-(1-(2,2-difluoroethyl)-6-oxo-1,6-dihydropyridazin-3-yl)pyrrolo[2,1-f][1,2,4]triazin-5-yl)piperidin-3-yl)-2-methyl-4-(((1s,4S)-4-((tetrahydrofuran-3-yl)amino)cyclohexyl)oxy)thiazole-5-carboxamide] | 1 |
| N—((R)-1-(4-amino-7-(2-(tert-butyl)-1,1-dioxido-2,3-dihydrobenzo[d]isothiazol-5-yl)pyrrolo[2,1-f][1,2,4]triazin-5-yl)piperidin-3-yl)-5-chloro-3-(((1R,3s,5S)-8-methyl-8-azabicyclo [3.2.1]octan-3-yl)oxy)thiophene-2-carboxamide [Example 967] | 0.9 |
| CCN1[C@@H]2CCC[C@H]1C[C@H](Oc1nc(C)sc1C(=O)N[C@@H]1CCCN(c3cc(-c4ccc(=O)n(CC(F)F)n4)n4ncnc(N)c34)C1)C2 [Example 970, N—((R)-1-(4-amino-7-(1-(2,2-difluoroethyl)-6-oxo-1,6-dihydropyridazin-3-yl)pyrrolo[2,1-f][1,2,4]triazin-5-yl)piperidin-3-yl)-4-(((1R,3s,5S)-9-ethyl-9-azabicyclo[3.3.1]nonan-3-yl)oxy)-2-methylthiazole-5-carboxamide] | 5 |
